Assays:
Type in all cases: cell-based
TIMP1 = test: PMA-induced gene expression in fibroblasts, RT-PCR (FIG. 4); conditions: 100 nM PMA + 0.4 nM GM
Source text: (§1) The […] inhibitor proteins TIMP1 and TIMP3 exist in fibroblasts to counterbalance metalloproteinases MMP1 and MMP3.

TIMP3 = test: as above; conditions: 100 nM PMA + 0.4 nM GM
Source text: as §1

MMP3 = test: as above; conditions: 100 nM PMA + 0.4 nM GM
Source text: as §1

MMP [1] = test: PMA-induced MMP in fibroblasts, Western blotting (FIG. 2); conditions: 100 nM PMA + 0.4 nM GM
Source text: The images in the upper picture represent MMP expressions while the images in the lower picture are provided as a house keeping gene expressed protein.

MMP [2] = test: PMA-induced MMP production in fibroblasts, quantified (FIG. 1); conditions: 5-hour incubation, control about 25, PMA alone about 70 ng/mL
Protocol: (§2) The experiments are conducted under two kinds of conditions, wherein one uses phorbol 12-myristate 13-acetate (PMA) to induce skin-cells to produce MMP while the other uses UVB to induce skin-cells to produce MMP and the inhibitory effects of the green algae extract of the present invention on MMP produced under both conditions are tested.
As known by those skilled in the art, PMA is an activator of protein kinase C (PKC) in fibroblasts, and PKC is an activator of MMP. Further, unduly activated MMP can break collagens as well as elastins in fibroblasts and in turn lead to aged skin. In the experiment shown in FIG. 1, Rectangle (1) belongs to a control group; Rectangle (2) belongs to a comparison group; and Rectangles (3), (4), (5) and (6) belong to an experimental group. A 5-hour incubation is conducted in each of the groups.

MMP [3] = test: UVB-induced MMP in fibroblasts, quantified (FIG. 5); conditions: no UV about 3.5, UV alone about 6.0 ng/mL
Protocol: as §2

CNC(=O)[C@H](Cc1c[nH]c2ccccc12)NC(=O)[C@@H](CC(=O)NO)CC(C)C [GM]
TIMP1 genetic expression (RT-PCR) compared with PMA alone (TIMP1): fails to significantly enhance | TIMP3 genetic expression (RT-PCR) compared with PMA alone (TIMP3): fails to significantly enhance | MMP3 mRNA expression (RT-PCR) compared with PMA alone (MMP3): less | MMP activity (Western blot) compared with PMA alone (MMP [1]): slightly inhibits | average content of MMP (MMP [2]; 100 nM PMA + 0.4 nM GM): about 50 ng/mL

Vitamin E
average content of MMP (MMP [3]; 25 uM Vitamin E added before 1.5 hours UV): 6.0 ng/mL

O=C1O[C@H]([C@@H](O)CO)C(O)=C1O [Vitamin C]
average content of MMP (MMP [2]; 100 nM PMA + 0.15 nM Vitamin C): about 60 ng/mL | average content of MMP (MMP [3]; 0.15 mM Vitamin C added before 1.5 hours UV): 9.0 ng/mL

Reference: US20090142370A1, “Method for preventing skin-cellular aging by using green algae extract and cosmetic composition containing green algae extract” (priority 2007, published 2009)
